How the values were obtained:
[1] = system: Male Sprague Dawley rats; experiment: Dural inflammation migraine model, tactile hyperesthesia of the hindpaw (50% paw withdrawal threshold, von Frey filaments); format: in vivo, rat
[2] = system: Male Sprague Dawley rats; experiment: Dural inflammation migraine model, facial tactile hyperesthesia (50% facial response threshold, von Frey filaments); format: in vivo, rat

N[C@@H](CCC(=O)N[C@@H](CSN=O)C(=O)NCC(=O)O)C(=O)O [SNOG, s-nitrosylglutathione]
tactile hyperesthesia of the hindpaw after administration to the dura ([1]; administered to the dura, results two hours after treatment (FIG. 4)): produced a tactile hyperesthesia effect similar to that induced by administration of the IM cocktail

CCCCN1CCCCC1C(=O)Nc1c(C)cccc1C (stereo not shown) [bupivacaine]
50% paw withdrawal threshold versus control rats with dural IM cocktail only ([1]; administered in the RVM thirty minutes after IM cocktail (FIG. 9A)): increase in paw withdrawal threshold | 50% paw withdrawal threshold versus control rats with dural IM cocktail only ([1]; administered in the RVM two hours after IM cocktail (FIG. 9B)): significant increase in test animal paw withdrawal threshold | 50% facial response threshold versus control rats with dural IM cocktail only ([2]; administered in the RVM thirty minutes after IM cocktail (FIGS. 7A-7B)): increase in facial response threshold

CNS(=O)(=O)Cc1ccc2[nH]cc(CCN(C)C)c2c1 [sumatriptan]
50% paw withdrawal threshold versus control rats with dural IM cocktail only ([1]; 0.6 mg/kg s.c. ten minutes prior to IM cocktail (FIG. 8)): increase in paw withdrawal threshold | tactile hyperesthesia of the hindpaw induced by dural inflammation ([1]; sumatriptan succinate subcutaneously 1 mg/kg five minutes prior to dural IM cocktail, results two hours after dural treatment (FIG. 10)): attenuates tactile hyperesthesia of the hindpaw | 50% facial response threshold versus control rats with dural IM cocktail only ([2]; systemic administration thirty minutes after IM cocktail (FIGS. 6A-6B)): increase in facial response threshold

Source: US20080031822A1, “Methods of modeling migraine pain and identifying candidate compounds for the treatment of migraine” (priority 2006, published 2008)
